Measured values reported in ChEMBL document CHEMBL1123826, “Nitrogen bridgehead compounds. 66. Bronchodilator nitrogen bridgehead compounds with a pyrimidinone moiety” (J Med Chem, 1987).

What was measured:
Type in all cases: functional
Cavia porcellus [1] = organism: Cavia porcellus; test: Bronchodilator activity against acetylcholine-induced spasm in guinea pig; details: read-out: ID50 (the source's name)
Cavia porcellus [2] = organism: Cavia porcellus; test: Bronchodilator activity against histamine-induced spasm in guinea pig; details: read-out: ID50 (the source's name)
Cavia porcellus [3] = organism: Cavia porcellus; test: Bronchodilator activity against serotonin-induced spasm in guinea pig; details: read-out: ID50 (the source's name)
Cavia porcellus [4] = test: Compound was tested for Bronchodilator activity against histamine-induced spasm in guinea pig by Konzett-Rossler test; dose administered by intraduodenal route.; details: read-out: ID50 (the source's name)
Cavia porcellus [5] = test: Compound was tested for Bronchodilator activity against serotonin-induced spasm in guinea pig by Konzett-Rossler test; dose administered by intraduodenal route; details: read-out: ID50 (the source's name)
Cavia porcellus [6] = test: Compound was tested for Bronchodilator activity against acetylcholine-induced spasm in guinea pig by Konzett-Rossler test; dose administered by intraduodenal route.; details: read-out: ID50 (the source's name)
Cavia porcellus [7] = organism: Cavia porcellus; test: […] activity was evaluated by inhibition of BaCl2 induced spasm in isolated guinea pig ileum
Cavia porcellus [8] = organism: Cavia porcellus; test: […] activity was evaluated by inhibition of acetylcholine induced spasm in isolated guinea pig ileum
Cavia porcellus [9] = organism: Cavia porcellus; test: […] activity was evaluated by inhibition of histamine induced spasm in isolated guinea pig ileum
Cavia porcellus [10] = organism: Cavia porcellus; test: […] activity was evaluated by inhibition of nicotinate induced spasm in isolated guinea pig ileum
Cavia porcellus [11] = organism: Cavia porcellus; test: Compound was tested for Anticholenergic activity on isolated guinea pig trachea contracted by carbachol
Homo sapiens [12] = organism: Homo sapiens; test: Compound was tested for Bronchodilator activity against isolated human bronchus contracted by carbachol
[13] = Ratio of pA2 to pD2 was determined on isolated guinea pig trachea
Cavia porcellus [14] = organism: Cavia porcellus; test: […] activity was evaluated by inhibition of serotonin induced spasm in isolated guinea pig ileum
Cavia porcellus [15] = test: Compound was tested for Bronchodilator activity against serotonin-induced spasm in guinea pig by Konzett-Rossler test; dose administered by intraduodenal route.; details: read-out: ID50 (the source's name)
Homo sapiens [16] = organism: Homo sapiens; test: compound was tested for Bronchodilator activity against isolated human bronchus contracted by carbachol; details: Homo sapiens, Bronchus; read-out: IC50
[17] = Relative potency is ratio of IC50 of theophylline / IC50 was determined
[18] = Relative potency calculated from ratio of IC50 of theophylline / IC50 was determined
[19] = Homo sapiens, Bronchus, read-out: IC50

Compound | ED50 (Cavia porcellus [1]) | ED50 (Cavia porcellus [2]) | ED50 (Cavia porcellus [3]) | further results
O=c1c2cc3c(cc2nc2n1CCCCC2)OCO3 | 22.7 µmol/kg | > 32 µmol/kg | 13.1 µmol/kg | –
O=c1c2c(nc3n1CCC3)CCCC2 | 51.1 µmol/kg | 24.1 µmol/kg | 29.8 µmol/kg | –
Cc1ccn2c(=O)c3c(nc2c1)CCCC3 | 37.7 µmol/kg | 20.4 µmol/kg | 21.9 µmol/kg | –
Cc1ccc2c(=O)n3c(nc2c1)CCCCC3 | 76 µmol/kg | 25.6 µmol/kg | 39.4 µmol/kg | –
O=c1c2ccccc2nc2n1CCCC2 | 31.1 µmol/kg | 11.1 µmol/kg | 15.2 µmol/kg | –
CCOC(=O)c1ccc2c(=O)n3c(nc2c1)CCCCC3 | – | – | – | ED50 (Cavia porcellus [4]): 32 µmol/kg; ED50 (Cavia porcellus [5]): 10 µmol/kg; ED50 (Cavia porcellus [6]): 24.5 µmol/kg
Cl.O=c1c2c(nc3n1CCCCC3)CCCC2 | – | – | – | IC50 (Cavia porcellus [7]): 123 uM l-1; IC50 (Cavia porcellus [8]): 5.01 µM; IC50 (Cavia porcellus [9]): > 100 µM; IC50 (Cavia porcellus [10]): 49.5 µM; pD2 (Cavia porcellus [11]): 5.39; Kb (Cavia porcellus [11]; read-out: pA2 (converted)): 1910 nM; IC50 (Homo sapiens [12]): 5.4 µM; Ratio [13]: 1.06; IC50 (Cavia porcellus [14]): 752 uM l-1
CC1CCc2nc3c(c(=O)n2C1)CCC3 (centres undefined) | 17.6 µmol/kg | 7.2 µmol/kg | 39.6 µmol/kg | –
CC1CCCCn2c1nc1c(c2=O)CCCC1 (centres undefined) | – | – | – | ED50 (Cavia porcellus [4]): > 320 µmol/kg; ED50 (Cavia porcellus [15]): > 320 µmol/kg; ED50 (Cavia porcellus [6]): > 320 µmol/kg
Cc1ccn2c(=O)c3c(nc2c1)CCC3 | 29.6 µmol/kg | 15.7 µmol/kg | 22.6 µmol/kg | –
O=c1c2c(nc3n1CCCCC3)CCCCC2 | 7.2 µmol/kg | 33.8 µmol/kg | 30.8 µmol/kg | –
O=c1c2c(nc3n1CCCC3)CCCCC2 | 11.8 µmol/kg | 15.2 µmol/kg | 12.7 µmol/kg | –
CC1CCCc2nc3c(c(=O)n21)CCCC3 (centres undefined) | 20.3 µmol/kg | 24.7 µmol/kg | 14 µmol/kg | –
Cc1cccn2c(=O)c3c(nc12)CCCC3 | 15.7 µmol/kg | 7 µmol/kg | 15.6 µmol/kg | IC50 (Homo sapiens [16]): 66.6 µM; Relative potency [17]: 2.26
CCc1c(C)nc2ccc(C)cn2c1=O | 24 µmol/kg | 12.4 µmol/kg | 16.6 µmol/kg | –
CC1CCCc2nc3c(c(=O)n21)CCC3 (centres undefined) | 18.2 µmol/kg | 11.7 µmol/kg | 13.8 µmol/kg | –
Cl.O=c1c2c(nc3ccccn13)CCC2 | 32.4 µmol/kg | 10.5 µmol/kg | 17.6 µmol/kg | IC50 (Homo sapiens [12]): 879 uM l-1; Relative potency [17]: 0.17
O=c1c2c(nc3n1CCCC3)CCCC2 | 44.5 µmol/kg | 22 µmol/kg | 33.3 µmol/kg | –

Compound | ED50 (Cavia porcellus [1]) | ED50 (Cavia porcellus [2]) | ED50 (Cavia porcellus [3]) | further results
Cc1cccn2c(=O)c3c(nc12)CCC3 | 21.6 µmol/kg | 10.2 µmol/kg | 11.2 µmol/kg | IC50 (Homo sapiens [12]; [19]): 97.7 µM; Relative potency [17]: 1.54
COc1ccccc1.Cn1c(=O)c2nc[nH]c2n(C)c1=O | 22 µmol/kg | 10 µmol/kg | 10 µmol/kg | IC50 (Homo sapiens [12]): 151 uM l-1; Relative potency [17]: 1
Cc1cccc2nc3c(c(=O)n12)CCC3 | 29.3 µmol/kg | 7.2 µmol/kg | 4.3 µmol/kg | –
COC(=O)c1ccc2nc3n(c(=O)c2c1)CCC3 | 44.1 µmol/kg | 27 µmol/kg | 11.7 µmol/kg | –
S=c1c2c(nc3n1CCCCC3)CCC2 | > 320 µmol/kg | > 320 µmol/kg | > 320 µmol/kg | –
O=C(O)c1ccc2c(=O)n3c(nc2c1)CCC3 | > 100 µmol/kg | > 100 µmol/kg | > 100 µmol/kg | –
O=c1nc2n(c3c1CCC3)CCC2 | > 100 µmol/kg | > 100 µmol/kg | > 100 µmol/kg | –
CC1CCc2nc3ccccc3c(=O)n21 (centres undefined) | 48.2 µmol/kg | 10.4 µmol/kg | 12.2 µmol/kg | –
O=C(O)c1ccc2nc3n(c(=O)c2c1)CCCCC3 | > 100 µmol/kg | > 100 µmol/kg | > 100 µmol/kg | –
CCc1c(C)nc2cc(C)ccn2c1=O | 36.7 µmol/kg | 20.9 µmol/kg | 29.7 µmol/kg | –
CCc1c(C)nc2cccc(C)n2c1=O | 25.6 µmol/kg | 10.2 µmol/kg | 9.6 µmol/kg | IC50 (Homo sapiens [12]; [19]): 71.8 µM; Relative potency [17]: 2.1
CCc1c(C)nc2n(c1=O)CCC(C)C2 (centres undefined) | 28.2 µmol/kg | 23.2 µmol/kg | 18.4 µmol/kg | IC50 (Homo sapiens [16]): 74.6 µM; Relative potency [17]: 2.02
Cc1ccc2nc3c(c(=O)n2c1)CCC3 | 29.1 µmol/kg | 29.2 µmol/kg | 14.4 µmol/kg | –
CCc1c(C)nc2c(C)cccn2c1=O | 36.4 µmol/kg | 5.1 µmol/kg | 12.3 µmol/kg | –
O=c1c2c(nc3n1CCCCC3)CCCC2 | – | – | – | Relative potency [18]: 28
O=C(O)c1ccc2nc3n(c(=O)c2c1)CCC3 | > 100 µmol/kg | 215 µmol/kg | > 100 µmol/kg | –
CC1CCCc2nc3ccccc3c(=O)n21 (centres undefined) | > 100 µmol/kg | 27 µmol/kg | 30.2 µmol/kg | –
Cc1ccc2nc3n(c(=O)c2c1)CCC3 | 29 µmol/kg | 29.8 µmol/kg | 11.3 µmol/kg | –
